Experimental data: the NIST ThermoML archive (doi:10.1016/j.jct.2015.08.010)

Assay: xn = mol fraction of the nth substance listed
Conditions: 100 kPa, Liquid; for viscosity: Falling or rolling sphere viscometry; for mass density: Vibrating tube method

C1CCC2=NCCC[NH+]2CC1.c1c[n-]cn1 [1,8-diazabicyclo[5.4.0]undec-7-enium imidazolide] + O
Conditions	mass density, 293.15 K [kg/m3]	mass density, 298.15 K [kg/m3]	mass density, 303.15 K [kg/m3]	mass density, 308.15 K [kg/m3]	mass density, 313.15 K [kg/m3]	viscosity, 293.15 K [mPa·s]	viscosity, 298.15 K [mPa·s]	viscosity, 303.15 K [mPa·s]	viscosity, 308.15 K [mPa·s]	viscosity, 313.15 K [mPa·s]
x1 = 0.0298	1026.99	1024.52	1021.91	1019.17	1016.33	2.845	2.428	2.096	1.835	1.614
x1 = 0.0698	1048.57	1045.19	1041.75	1038.24	1034.66	8.167	6.74	5.761	4.854	4.071
x1 = 0.0998	1057.33	1053.65	1050.01	1046.13	1042.33	14.13	11.17	9.019	7.406	6.217
x1 = 0.1875	1067.15	1063.22	1059.26	1055.28	1051.28	34.98	25.84	19.66	15.37	12.31
x1 = 0.2994	1067.1	1063.15	1059.2	1055.23	1051.26	60.57	42.65	30.99	23.32	18.12
x1 = 0.444	1063.55	1059.63	1055.71	1051.79	1047.79	72.41	51.28	37.8	28.37	21.76
x1 = 0.5989	1059.62	1055.73	1051.85	1047.97	1044.1	69.49	49.75	36.33	27.13	20.87
x1 = 0.7516	1056.72	1052.85	1048.97	1045.08	1041.21	63.94	44.98	32.9	24.83	19.33
x1 = 0.8728	1055.11	1051.25	1047.41	1043.56	1039.73	55.45	39.57	29.31	22.6	17.88
x1 = 1	1053.63	1049.78	1045.94	1042.11	1038.28	47.82	34.94	26.36	20.5	16.28
